tested on: C8166; test: Ability to inhibit the replication of HIV-1 IIIB infected C8166 cells; type: functional, cell-based; details: Homo sapiens

EC50 [µM] | Structure (SMILES)
20 | CCCOP(=O)(OCC1C=CC(n2cc(C)c(=O)[nH]c2=O)O1)OCC(Cl)(Cl)Cl (centres undefined)
> 200 | CCCOP(=O)(OCCC)OCC1C=CC(n2cc(C)c(=O)[nH]c2=O)O1 (centres undefined)
0.2 | COC(=O)C(C)NP(=O)(OCC1C=CC(n2cc(C)c(=O)[nH]c2=O)O1)OCC(Cl)(Cl)Cl (centres undefined)
0.4 | Cc1cn(C2C=CC(COP(=O)(OCC(Cl)(Cl)Cl)OCC(Cl)(Cl)Cl)O2)c(=O)[nH]c1=O (centres undefined)
0.08 | Cc1cn([C@H]2C=C[C@@H](CO)O2)c(=O)[nH]c1=O [STAVUDINE]

Structure (SMILES) | EC50 [µM]
CCCOP(=O)(NC(C)C(=O)OC)OCC1C=CC(n2cc(C)c(=O)[nH]c2=O)O1 (centres undefined) | 200
Cc1cn(C2C=CC(COP(=O)(OCC(F)(F)F)OCC(F)(F)F)O2)c(=O)[nH]c1=O (centres undefined) | 15

tested on: not listed separately; test: Toxic concentration against HIV-1 IIIB in C8166 T-cells; type: ADME, cell-based; details: human, read-out: TC50 (the source's name)

Structure (SMILES) | CC50 [µM]
CCCOP(=O)(OCC1C=CC(n2cc(C)c(=O)[nH]c2=O)O1)OCC(Cl)(Cl)Cl (centres undefined) | 500
CCCOP(=O)(NC(C)C(=O)OC)OCC1C=CC(n2cc(C)c(=O)[nH]c2=O)O1 (centres undefined) | 250
CCCOP(=O)(OCCC)OCC1C=CC(n2cc(C)c(=O)[nH]c2=O)O1 (centres undefined) | 200
Cc1cn(C2C=CC(COP(=O)(OCC(F)(F)F)OCC(F)(F)F)O2)c(=O)[nH]c1=O (centres undefined) | 500
COC(=O)C(C)NP(=O)(OCC1C=CC(n2cc(C)c(=O)[nH]c2=O)O1)OCC(Cl)(Cl)Cl (centres undefined) | 500
Cc1cn(C2C=CC(COP(=O)(OCC(Cl)(Cl)Cl)OCC(Cl)(Cl)Cl)O2)c(=O)[nH]c1=O (centres undefined) | 150
Cc1cn([C@H]2C=C[C@@H](CO)O2)c(=O)[nH]c1=O [STAVUDINE] | 50

— ChEMBL document CHEMBL1150525, “Phosphate derivatives of d4T as inhibitors of HIV” (Bioorg Med Chem Lett, 1993)
